Assay results: US20160338989A1, “SOLID PHARMACEUTICAL COMPOSITIONS CONTAINING BENZOFURAN DERIVATIVES” (SANOFI, priority 1997, published 2016)
Where a name gives a salt, the structure may show the parent alone.

Assays:
[1] = physchem; conditions: aqueous medium
[2] = Test of maintenance in solution at pH=6.7, active principle alone; assay type: physicochemical; conditions: absence of surfactant; pH 6.7, 2 hours at 37° C.
Experimental: Solutions were prepared containing 2 mg/ml of dronedarone. hydrochloride in hydrogenphosphate (NaH2PO4 buffered medium at pH=4.5 for 2 hours at 37° C. in the presence or absence of x % of nonionic hydrophilic surfactant to be studied, calculated on a weight basis relative to the active principle in base form.
This solution was then diluted to 1/10th in a neutral phosphate medium (Na2HPO4+NaH2PO4), the pH of the final solution being 6.7.
After 2 hours at 37° C., the solution was filtered through an Acrodisc brand 5 μm filter and the active principle in solution was assayed by UV spectrometry.

[3] = Behaviour in the presence of bile salts; assay type: physicochemical; conditions: bile salts such as sodium taurocholate
[4] = Bioavailability after intake of food, dogs; assay type: in vivo; conditions: in particular fats
Source text: (§1) This behaviour in intestinal medium probably makes it possible to explain in vivo the low bio-availability of dronedarone hydrochloride and the differences observed after administration with or without food, since it has been observed that the bio-availability of dronedarone hydrochloride in dogs and in man is increased after the intake of food, in particular fats, which can greatly modify the precipitation kinetics of this active principle and also help to place it in emulsion form.

[5] = Bioavailability after intake of food, man; assay type: in vivo; conditions: in particular fats
Source text: as §1

[6] = Dissolution at pH=4 and dilution to 1/10 with buffer of pH=7; assay type: physicochemical
Experimental: Thus, it is possible to dissolve 400 mg of dronedarone hydrochloride in 200 ml of aqueous medium buffered to pH=4 (aqueous 0.1 M NaH2PO4 solution).
On the other hand, in this medium diluted to 1/10 with an aqueous solution buffered to pH=7 (aqueous 0.1 M Na2HPO4 solution), dronedarone hydro-chloride precipitates (pH of the final medium: 6.7).

CCCCc1oc2ccc(NS(C)(=O)=O)cc2c1C(=O)c1ccc(OCCCN(CCCC)CCCC)cc1 [dronedarone hydrochloride, 2-n-butyl-3-[4-(3-di-n-butyl-aminopropoxy)benzoyl]-5-methylsul-phonamidobenzofuran]
solubility ([1]; aqueous buffer): 1000 to 2000 µg/mL | solubility ([1]; pH 7, aqueous buffer): 10 µg/mL | % of dronedarone hydrochloride in solution [2]: 5% | behaviour in the presence of bile salts [3]: precipitates | bioavailability after the intake of food [4]: increased | bioavailability after the intake of food [5]: increased | behaviour on dilution to 1/10 with aqueous solution buffered to pH=7 ([6]; 0.1 M Na2HPO4, pH of the final medium 6.7): precipitates | amount that can be dissolved in 200 ml of aqueous medium ([6]; buffered to pH=4 (aqueous 0.1 M NaH2PO4 solution)): 400 mg
